Marks after values point to notes of the source that are not given here.
Assays:
CYP2D6 = assay: Isolated perfused rat liver, tramadol O-demethylation to M1 after MDMA or paroxetine pretreatment; assay type: in vivo; conditions: tramadol 1 µg/mL, n=4; for Metabolite ratio M1 % decrease compared to the control group: AUC0-t M1 / AUC0-t tramadol
[1] = parameters: method as in doi:10.1007/s002130000545, PMID 12404536, PMID 12869661; conditions: following ecstasy consumption; cited from earlier work
CYP3A4 = assay: Isolated perfused rat liver, tramadol N-demethylation to M2 after MDMA or paroxetine pretreatment; assay type: in vivo; conditions: regular doses of MDMA (1-10 mg/kg)
[2] = Isolated perfused rat liver, tramadol AUC in perfusate after MDMA or paroxetine pretreatment; assay type: in vivo; conditions: MDMA 1, 5 and 10 mg/kg i.p.; tramadol 1 µg/mL

Row | SMILES | AUC M1 % decrease compared to the control group (CYP2D6; MDMA 1 mg/kg i.p. 1 h before liver perfusion) | Metabolite ratio M1 % decrease compared to the control group (CYP2D6; MDMA 1 mg/kg i.p.) | AUC M1 % decrease compared to the control group (CYP2D6; MDMA 10 mg/kg i.p. 1 h before liver perfusion) | Metabolite ratio M1 % decrease compared to the control group (CYP2D6; MDMA 10 mg/kg i.p.) | duration of positive psychological effects [1] | CYP3A4 activity inhibition (CYP3A4) | tramadol AUC compared to the control group [2] | AUC M1 % decrease compared to the control group (CYP2D6; paroxetine 0.266 mg/kg oral, three consecutive days, listed as PXL) | Metabolite ratio M1 % decrease compared to the control group (CYP2D6; paroxetine 0.266 mg/kg oral, three days) | Metabolite ratio M1 % decrease compared to the control group (CYP2D6; paroxetine 0.266 mg/kg oral, three days, listed as PXL)
1 | CNC(C)Cc1ccc2c(c1)OCO2 (stereo not shown) [MDMA, methylenedioxymethamphetamine] | 38% | 29% | 50% | 45% | 3-6 hours | cannot inhibit | no significant differences |  |  | 
2 | Fc1ccc([C@@H]2CCNC[C@H]2COc2ccc3c(c2)OCO3)cc1 [paroxetine] |  |  |  |  |  |  |  | 40* % | 30% | 30* %

Reference: publication PMC8421619, “Investigation of MDMA Inhibitory Effect on CytochromeP450 3A4 in Isolated Perfused Rat Liver Model Using Tramadol” (Advanced Pharmaceutical Bulletin, 2020)
